Laboratory results: patent publication US8980846B2, “Composition containing styraxlignolide A or the aglycone thereof as an active ingredient for preventing or treating asthma” (Korea Research Institute of Bioscience and Biotechnology, priority 2010, dated 2015)

Tests used:
[1] = tested on: fibrosis in subsegmental bronchi; assay: Fibrosis in subsegmental bronchi (Masson's trichrome staining); type: in vivo, Balb/c female mice; conditions: asthma-induced mice, styraxlignolide A study; 3 mg/kg PO 1 hour prior to ovalbumin inhalation
Description: (§1) To prepare bronchial asthma-induced experimental animals, six-week-old Balb/c female mice of mean weight about 20 g were used. After one week of adaptation, individuals which had no observed abnormality on a basic physical examination were targeted. 200 μL of phosphate buffered saline (PBS)(pH 7.4) in which 2 mg of aluminum hydroxide (A8222, Sigma, St. Louis, Mo.) and 20 μg of ovalbumin (A5503, Sigma, St. Louis, Mo.) were suspended was injected into the peritoneal cavity at two-week intervals to result in sensitization. On days 28 to 30 after the first intraperitoneal administration of ovalbumin, inhalation challenge was performed for 30 min with 1% ovalbumin using an ultrasonic atomizer. 24 hours after the last antigen administration, airway hyperresponsiveness was measured. After 24 hours, a lethal dose of pentobarbital (Entobar®, Hanlim Pharm Co., Ltd.) was administered, body weight measurement and bronchotomy were performed, and bronchoalveolar lavage was performed with a total 1.2 mL of physiological saline, and then, samples were collected. […] Eight white mice were used for each group. Experimental groups for homoegonol were a group (hE7.5) in which animals were orally administered with 7.5 mg/kg homoegonol 1 hour prior to ovalbumin inhalation, a group (hE15) in which animals were orally administered with 15 mg/kg homoegonol 1 hour prior to ovalbumin inhalation, and a group (hE30) in which animals were orally administered with 30 mg/kg homoegonol 1 hour prior to ovalbumin inhalation, and five white mice were used for each group.

[2] = tested on: alanine aminotransferase (ALT) and aspartate aminotransferase (AST) in serum; type: in vivo; conditions: mouse, in vivo, po, 3 mg/kg
Description: as §1
To examine liver toxicity of styraxlignolide A, a commercially available ELISA kit (BECKMAN Coulter, Inc., Fullerton, Calif., USA) was used to measure alanine aminotransferase (ALT) and aspartate aminotransferase (AST) in serum.

TGF-β1 = TGF-β1 in bronchoalveolar lavage fluid; type: in vivo, Balb/c female mice; conditions: asthma-induced mice, homoegonol study; 3 mg/kg PO
Description: as §1
(§2) To examine the effect of homoegonol on airway remodeling, generation of TGF-β1 and IL-17 in bronchoalveolar lavage fluid was measured.

goblet cells [3] = assay: Ratio of goblet cells to bronchial epithelial cells (PAS staining); type: in vivo, Balb/c female mice; conditions: asthma-induced mice, homoegonol study, 3 mg/kg PO
goblet cells [4] = assay: as above; type: in vivo, Balb/c female mice; conditions: asthma-induced mice, styraxlignolide A study; 3 mg/kg PO 1 hour prior to ovalbumin inhalation
Description: as §1
Lungs removed from each individual were subjected to conventional formalin fixation and paraffin embedding, and permanent section slides of 4 μm thickness were prepared, and periodic acid Schiff (PAS) staining was performed to determine goblet cells. Proliferation of goblet cells was assessed by measuring the ratio of goblet cells to bronchial epithelial cells.
In accordance with the method in <Experimental Example 7-2>, the ratio of goblet cells which were determined by periodic acid-Schiff staining to bronchial epithelial cells were measured to assess proliferation of goblet cells.

[5] = tested on: inflammatory cells in bronchoalveolar lavage fluid; assay: Inflammatory cell counts in bronchoalveolar lavage fluid (Diff-Quick staining); type: in vivo, Balb/c female mice; conditions: asthma-induced mice
IL-17 = IL-17 in bronchoalveolar lavage fluid; type: in vivo, Balb/c female mice; conditions: asthma-induced mice, homoegonol study; 3 mg/kg PO
Description: as §1, §2

[6] = tested on: airway hyperresponsiveness; assay: Airway hyperresponsiveness, Penh by one chamber plethysmography after methacholine inhalation; type: in vivo, Balb/c female mice; conditions: asthma-induced mice, homoegonol study, 3 mg/kg PO
Description: as §1, with “Experimental groups for homoegonol were a group (hE7.5) in which animals were orally administered with 7.5 mg/kg homoegonol 1 hour prior to ovalbumin inhalation, a group (hE15) in which animals were orally administered with 15 mg/kg homoegonol 1 hour prior to ovalbumin inhalation, and a group (hE30) in which animals were orally administered with 30 mg/kg homoegonol 1 hour prior to ovalbumin inhalation, and five white mice were used for each group.” left out
The effect of styraxlignolide A on airway hyperresponsiveness caused by asthma occurrence was examined by measuring airway resistance with one chamber plethysmography (All medicus, Seoul, Republic of Korea) and degree of airway resistance was assessed by measuring Penh (enhanced pause) values. The baseline value was measured under a normal respiratory condition, and then, PBS was inhaled using an ultrasonic atomizer for 3 min, and Penh values were measured over 3 min. […] Louis, Mo.) which is used in general methods for diagnosis of bronchial asthma were inhaled and Penh values were measured. Penh value is shown in the following Equation 1, and the resulting Penh value was expressed as a percent increase in Penh after inhalation of each concentration of methacholine. The baseline Penh (saline challenge) was expressed as 100%.
Te: expiratory time (sec), the time from inspiration to the next inspiration
RT: relaxation time, the elapsed time between the beginning of the expiration and the moment when the remaining 30% of the tidal volume has been reached during expiration
PEF: Peak expiration flow
PIF: Peak inspiration flow
To examine the effect of homoegonol on airway hyperresponsiveness caused by asthma occurrence, Penh value was measured according to the method in <Experimental Example 2>.

[7] = tested on: inflammatory cells in the airway mucosa; assay: Inflammatory cell infiltration in airway mucosa, inflammatory index (H&E staining); type: in vivo, Balb/c female mice; conditions: asthma-induced mice, scale 0-4
[8] = Body weight in asthma-induced mice; type: in vivo, Balb/c female mice; conditions: 3 mg/kg PO 1 hour prior to ovalbumin inhalation
Description: as §1
(§3) To determine an effect of styraxlignolide A on reduction in body weight in asthma-induced mice, body weight of each mouse prepared in Example 2 was measured. For statistical analyses for all measurements, means and standard errors (mean±S.E.) according to a number of variables were calculated, and comparison between each group was analyzed by performing a Mann-whitney U test using SPSS 10.0. Statically significance was accepted at p<0.05.
as §3, with “homoegonol” for “styraxlignolide A”

ovalbumin-specific IgE = assay: IgE levels in serum and bronchoalveolar lavage fluid (ELISA); type: in vivo, Balb/c female mice; conditions: asthma-induced mice, homoegonol study, 3 mg/kg PO
[9] = tested on: inflammatory cells in bronchoalveolar lavage fluid; assay: Inflammatory cell counts in bronchoalveolar lavage fluid (Diff-Quick staining); type: in vivo, Balb/c female mice; conditions: asthma-induced mice; remark: listed apart in the source
Description: as §1
Bronchoalveolar lavage fluid was collected from individuals of each experimental group in <Example 2> and right after the collection, fluid was stained with trypan blue. The number of total cells except dead cells was calculated using a hemocytometer. Then, Diff-Quick staining (Sysmex, Swizerland) was performed after smear preparation with Cytospin II, and eosinophils and other inflammatory cells were differentially counted.
To examine the effect of homoegonol on asthma, variation in the numbers of asthma-related inflammatory cells was measured according to the method in <Experimental Example 3>.

[10] = homoegonol study, 3 mg/kg PO, bronchoalveolar lavage fluid, 3 mg/kg
[11] = styraxlignolide A study, 3 mg/kg PO 1 hour prior to ovalbumin inhalation
[12] = homoegonol study, 3 mg/kg PO, 3 mg/kg

## C[C@@H]1C[C@H]2[C@@H]3CCC4=CC(=O)C=C[C@]4(C)[C@@]3(F)[C@@H](O)C[C@]2(C)[C@@]1(O)C(=O)CO [DEXA, dexamethasone]
[1]
  area of a fibrosis stained region per 100 μm of a basement membrane perimeter: 639.59±106.96 μm^2
[2]
  serum ALT: 274.67±12.12 IU/L
  serum AST: 369.33±31.27 IU/L
TGF-β1
  TGF-β1 concentrations in bronchoalveolar lavage fluid: 159.2813 ± 12.9548 pg/mL
Goblet cells [3]
  Goblet cells %/bronchial epithelial cell unit: 18.7828±5.9397%
Goblet cells [4]
  ratio of goblet cells to bronchiolar epithelial cells: 34.96±6.86%
[5]; [10]
  Number of cells, Eosinophils: 1.32±0.49 ×10^3 cells/mouse
  Number of cells, Total inflammatory cells: 20.04±4.7744 ×10^3 cells/mouse
[5]; [11]
  numbers of total inflammatory cells in bronchoalveolar lavage fluid: 153.48±19.69
IL-17
  IL-17 concentrations in bronchoalveolar lavage fluid: 48.8409 ± 4.3738 pg/mL
[6]; methacholine 0 mg/ml
  Penh values: 0.4407 ± 0.0422
[6]; methacholine 12.5 mg/ml
  Penh values: 0.7768 ± 0.1475
[6]; methacholine 25 mg/ml
  Penh values: 0.8900 ± 0.1619
[6]; methacholine 50 mg/ml
  Penh values: 1.1036 ± 0.4048
[7]; [12]
  Inflammatory index, peribronchiolar: 0.78±0.1315
  Inflammatory index, perivascular: 0.44±0.1571
[7]; [11]
  peribronchiolar inflammatory index: 1.46±0.26
[8]; homoegonol study
  body weight: 19.98 ± 0.39 g
[8]; styraxlignolide A study
  body weight: 20.49 ± 0.29 g
ovalbumin-specific IgE; bronchoalveolar lavage fluid
  Total IgE level in bronchoalveolar lavage fluid: 24.3617 ± 4.8149 ng/mL
ovalbumin-specific IgE; serum, Table 2
  Total serum IgE level: 9.14 ± 2.0591 µg/mL
[9]; homoegonol study, 3 mg/kg PO, bronchoalveolar lavage fluid
  Number of cells, Other inflammatory cells: 18.72 ± 2.2919 ×10^3 cells/mouse
[9]; [11]
  numbers of eosinophils in bronchoalveolar lavage fluid: 41.88±9.08
